# Measurements from patent US20220064196A1, “EGFR Inhibitors, Compositions and Methods Thereof” (Betta Pharmaceuticals Co., Ltd., priority 2019, published 2022).
# Like-named read-outs stand apart in the source and are kept apart here.
# Legend:
# EGFR L858R/T790M/C797S = EGFR L858R/T790M/C797S (Homo sapiens, UniProt P00533, C797S/L858R/T790M); test: Kinase assay (mobility shift), EGFR L858R/T790M/C797S; format: biochemical
# Method: [Worded in the source for another variant; this variant is reported under the same test.] (§1) Test 1 Kinase Assay for EGFR Del19/T790M/C797S and EGFR Wildtype
# (§2) Enzyme reaction protocol are as follows:
# (§3) 1. Preparing 1* Kinase buffer as followed.
# (§4) 2. Preparing Compound Concentration Gradient: Compounds were tested at a concentration of 300 nM, diluted to 100-fold final concentration in 100% DMSO solution in 96-well plates, and compounds were diluted 3 times with Precision, 10 concentrations. Each concentration of the compound was then further diluted to a 5-fold final concentration of the intermediate dilution solution using 1* Kinase buffer.
# (§5) 3.5 μL of each of the prepared intermediate dilution compounds was separately added to the compound wells of the 384-well plate, and each concentration was tested for duplicate wells; 5 μL of 5% DMSO was added to the negative control wells and the positive control wells, respectively.
# (§6) 4. 2.5-fold final concentration of the kinase solution was prepared using 1*Kinase buffer.
# (§7) 5. Add 10 μL of 2.5-fold final concentration of kinase solution to the compound well and positive control well; add 10 μL of 1*Kinase buffer to the negative control well.
# (§8) 6. Centrifuge at 1000 rpm for 30 seconds, shake the reaction plate and incubate for 10 minutes at room temperature.
# (§9) 7. A mixed solution of 2.5 times the final concentration of ATP and Kinase substrate (5-FAM-EEPLYWSFPAKKK-CONH2) was prepared using 1*Kinase buffer.
# (§10) 8. 10 μL of a 2.5-fold final concentration of a mixed solution of ATP and a substrate was added to initiate the reaction.
# (§11) 9. Centrifuge the 384-well plate at 1000 rpm for 30 seconds, mix by shaking, and incubate at room temperature for the corresponding time.
# (§12) 10. Add 30 μL of the stop solution to stop the kinase reaction, centrifuge at 1000 rpm for 30 seconds, and mix by shaking.
# (§13) 11. Read the conversion rate with Caliper EZ Reader.
# (§14) Convert conversion values to inhibition values:
# (§15) Percent inhibition 32 (max-conversion)/(max-min)*100.
# (§16) “max” stands for the mean value of the positive control well ratio; “min” stands for the mean value of the negative control well.
# (§17) Fit the data in log(inhibitor) vs. response Variable slope of GraphPad Prism 5 to obtain IC50 values.
# (§18) Equation used is: Y=Bottom+(Top-Bottom)/(1+(IC50/X)^HillSlope)
# EGFR WT = EGFR WT (Homo sapiens, UniProt P00533); test: Kinase assay (mobility shift), EGFR wildtype; format: biochemical; conditions: top concentration 300 nM
# Chain of EGFR WT (P00533 25-1210): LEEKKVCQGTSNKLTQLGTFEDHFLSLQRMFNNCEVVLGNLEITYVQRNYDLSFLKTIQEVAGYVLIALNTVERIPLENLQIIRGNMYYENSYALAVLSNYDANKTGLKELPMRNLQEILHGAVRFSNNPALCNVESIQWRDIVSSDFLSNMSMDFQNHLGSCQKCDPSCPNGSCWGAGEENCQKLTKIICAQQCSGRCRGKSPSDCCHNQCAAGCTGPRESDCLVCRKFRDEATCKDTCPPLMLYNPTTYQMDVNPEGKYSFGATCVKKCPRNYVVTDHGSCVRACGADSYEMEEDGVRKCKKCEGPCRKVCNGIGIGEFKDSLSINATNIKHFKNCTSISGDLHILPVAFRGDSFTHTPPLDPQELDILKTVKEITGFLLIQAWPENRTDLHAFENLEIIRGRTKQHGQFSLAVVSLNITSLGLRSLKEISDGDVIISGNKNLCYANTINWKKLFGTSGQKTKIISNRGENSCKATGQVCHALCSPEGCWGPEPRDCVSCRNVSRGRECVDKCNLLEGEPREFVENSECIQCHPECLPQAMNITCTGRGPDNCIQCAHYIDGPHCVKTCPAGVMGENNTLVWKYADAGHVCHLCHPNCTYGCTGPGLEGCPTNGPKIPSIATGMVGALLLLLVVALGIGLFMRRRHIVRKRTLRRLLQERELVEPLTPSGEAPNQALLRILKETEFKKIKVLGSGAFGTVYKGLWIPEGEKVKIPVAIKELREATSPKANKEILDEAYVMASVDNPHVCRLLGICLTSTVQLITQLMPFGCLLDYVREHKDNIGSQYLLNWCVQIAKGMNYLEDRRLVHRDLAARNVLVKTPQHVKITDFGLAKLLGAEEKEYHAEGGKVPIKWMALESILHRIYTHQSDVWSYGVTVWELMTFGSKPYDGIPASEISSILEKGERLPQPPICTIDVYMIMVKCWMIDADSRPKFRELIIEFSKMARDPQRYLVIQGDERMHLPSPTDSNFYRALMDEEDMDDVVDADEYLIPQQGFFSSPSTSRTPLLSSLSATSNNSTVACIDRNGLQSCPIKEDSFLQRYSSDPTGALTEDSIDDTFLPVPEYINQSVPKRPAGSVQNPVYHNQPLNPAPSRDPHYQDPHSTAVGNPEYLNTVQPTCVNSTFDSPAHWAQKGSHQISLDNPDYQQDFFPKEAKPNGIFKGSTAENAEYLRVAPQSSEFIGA
# Method: as §1, §2, §3, §4, §5, §6, §7, §8, §9, §10, §11, §12, §13, §14, §15, §16, §17, §18
# Ba/F3-Del19/T790M/C797S = Ba/F3-Del19/T790M/C797S (Homo sapiens, UniProt P00533, T790M/C797S, cells depend on it, form not given); test: Ba/F3-Del19/T790M/C797S cells proliferation assay (CellTiter Glo); format: cell-based; conditions: cell proliferation, 72 h, read-out: Ba/F3-Del19/T790M/C797S IC50
# Method: (§19) a) The medium was preheated in a 37°0 C. water bath in advance.
# (§20) b) Remove the cryogenic vials from the liquid nitrogen tank, quickly put it into a 37° C. water bath, and completely melt it in 1 min.
# (§21) c) Transfer the cell suspension to a 15 mL centrifuge tube containing 8 mL medium, centrifuge 1000 rpm, 5 min.
# (§22) d) Discard the supernatant, resuspend the cells in 1 mL medium, and transfer to a 75 cm^2 flask containing 15 mL medium, culture the cells in an incubator at 37° C., 5% CO2.
# (§23) a) The medium was preheated in a 37° C. water bath in advance.
# (§24) b) Collect cell to a 15 mL centrifuged tube, centrifuge at 1000 rpm for 5 min. Discard the supernatant, count, and make the cell density at 1×10^4 cells/mL, then place it in a 37° C., 5% CO2 incubator.
# (§25) a) The test compound (20 mM stock solution) was diluted to 200uM with 100% DMSO as starting concentration then 3-fold serial diluted with “9+0” concentrations. in a 96-well dilution plate (Cat # P-05525, Labcyte);
# (§26) b) The above compound solution was diluted 1:20 times with culture medium to prepare a 10 fold working solution;
# (§27) a) Take cells in log phase growth, centrifuge at 1000 rpm for 5 min, then resuspend the cells with culture medium, then count cells;
# (§28) b) Cells were seeded to 96-well cell culture plate with density at 2000 cells/well;
# (§29) a) Compounds prepared at step 2 were added to cell plate with 15 μL per well, the final concentrations were 1000,333, 111.1, 37,12.3, 4.1, 1.4, 0.5, 0.2 and 0 nM, and the final concentration of DMSO was 0.5%. The blank control well was a culture medium (0.5% DMSO);
# (§30) b) The cells were incubated for an additional 72 h in the incubator.
# (§31) a) Remove the 96-well cell culture plate and add 50 μl of CTG reagent (CellTiter Glo kit, promega, Cat # G7573).
# (§32) b) Plate was shaked for 2 min and then let it cool for 10 min at room temperature.
# (§33) c) The Luminescence signal value was read using a PerkinElmer reader. Experimental data analysis
# (§34) Data were analyzed using GraphPad Prism 6.0 software to obtain a fitted curve of compound activity.
# (§35) Fit the Compound IC50 from non-linear regression equation:
# (§36) Y=Bottom+(Top-Bottom)/(1+10((LogIC50-X)×Hill Slope));
# (§37) X: The log of the concentration of the compound; Y: Luminescence value.
# (§38) The cells proliferation assay results are expressed with IC50, shown as Table 2.
# Ba/F3-L858R/T790M/C797S = Ba/F3-L858R/T790M/C797S (Homo sapiens, UniProt P00533, T790M/C797S/L858R, cells depend on it); test: Ba/F3-L858R/T790M/C797S cells proliferation assay (CellTiter Glo); format: cell-based; conditions: cell proliferation, 72 h, read-out: Ba/F3-L858R/T790M/C797S IC50
# Chain of Ba/F3-L858R/T790M/C797S (P00533 whole entry T790M/C797S/L858R): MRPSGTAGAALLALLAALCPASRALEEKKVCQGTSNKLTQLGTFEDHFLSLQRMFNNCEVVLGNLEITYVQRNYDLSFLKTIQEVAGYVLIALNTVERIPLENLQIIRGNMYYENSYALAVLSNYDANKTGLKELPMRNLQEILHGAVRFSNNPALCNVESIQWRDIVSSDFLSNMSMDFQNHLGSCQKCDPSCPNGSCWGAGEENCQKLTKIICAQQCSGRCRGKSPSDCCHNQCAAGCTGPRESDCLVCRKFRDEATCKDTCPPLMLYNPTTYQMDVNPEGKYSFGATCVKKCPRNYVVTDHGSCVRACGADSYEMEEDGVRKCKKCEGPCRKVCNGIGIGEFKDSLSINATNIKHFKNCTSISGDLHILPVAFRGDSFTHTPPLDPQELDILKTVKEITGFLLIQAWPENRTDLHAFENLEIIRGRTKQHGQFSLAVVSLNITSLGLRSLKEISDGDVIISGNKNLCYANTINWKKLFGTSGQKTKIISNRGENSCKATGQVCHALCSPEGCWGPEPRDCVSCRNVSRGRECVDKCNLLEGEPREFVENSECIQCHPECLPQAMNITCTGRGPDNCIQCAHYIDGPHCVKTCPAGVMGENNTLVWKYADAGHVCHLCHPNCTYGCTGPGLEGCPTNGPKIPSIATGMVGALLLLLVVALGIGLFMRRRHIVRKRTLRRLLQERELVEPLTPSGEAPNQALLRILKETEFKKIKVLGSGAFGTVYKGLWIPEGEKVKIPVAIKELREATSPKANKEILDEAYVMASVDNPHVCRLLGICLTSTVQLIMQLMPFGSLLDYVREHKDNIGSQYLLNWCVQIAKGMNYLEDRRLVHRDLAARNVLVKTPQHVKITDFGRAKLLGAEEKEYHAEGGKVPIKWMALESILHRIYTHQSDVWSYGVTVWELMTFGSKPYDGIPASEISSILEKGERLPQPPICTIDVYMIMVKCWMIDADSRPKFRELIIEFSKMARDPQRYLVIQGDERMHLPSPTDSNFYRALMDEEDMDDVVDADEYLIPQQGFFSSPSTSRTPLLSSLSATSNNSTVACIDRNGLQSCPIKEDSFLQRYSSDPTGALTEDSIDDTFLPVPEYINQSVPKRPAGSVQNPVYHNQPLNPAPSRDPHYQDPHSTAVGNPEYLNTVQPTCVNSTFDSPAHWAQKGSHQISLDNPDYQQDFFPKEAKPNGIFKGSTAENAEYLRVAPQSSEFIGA
# Method: as §19, §20, §21, §22, §23, §24, §25, §26, §27, §28, §29, §30, §31, §32, §33, §34, §35, §36, §37, §38
# A431 (WT) = test: A431 cells proliferation assay (CellTiter Glo); format: cell-based; conditions: Homo sapiens, A-431; cell proliferation, 72 h
# Method: Test 4 A431 Cells Proliferation Assay
# DMEM and 10% FBS and 1% PS.
# as §23, §20, §21, §22, §24
# a) The test compound (20 mM stock solution) was diluted to 2 mM with 100% DMSO as starting concentration then 3-fold serial diluted with “9+0” concentrations. in a 96-well dilution plate (Cat # P-05525, Labcyte);
# b) The above compound solution was diluted 1:40 times with culture medium to prepare a 5 fold working solution;
# as §27
# b) Cells were seeded to 96-well cell culture plate with density at 5000 cells/well;
# a) Compounds prepared at step 2 were added to cell plate with 40 μL per well, the final concentrations were 10000, 3333,1111.1, 370.4, 123.5, 41.2, 13.7, 4.6, 1.5 and 0 nM, and the final concentration of DMSO was 0.5%. The blank control well was a culture medium (0.5% DMSO);
# as §30
# a) Remove the 96-well cell culture plate and add 60 μl of CTG reagent (CellTiter Glo kit, promega, Cat # G7573).
# as §32
# c) The Luminescence signal value was read using a PerkinElmer reader.
# Experimental Data Analysis
# as §34, §35
# Y=Bottom+(Top-Bottom)/(1+10((LogIC50-X)×HillSlope));
# as §37
# The cells proliferation assay results are expressed with IC50, shown as Table 3.
# EGFR Del19/T790M/C797S = EGFR Del19/T790M/C797S (Homo sapiens, UniProt P00533, T790M/C797S, form not given); test: Kinase assay (mobility shift), EGFR Del19/T790M/C797S; format: biochemical
# Chain of EGFR Del19/T790M/C797S (P00533 with tags, fused parts or gaps DEL746-750/T790M/C797S, form open): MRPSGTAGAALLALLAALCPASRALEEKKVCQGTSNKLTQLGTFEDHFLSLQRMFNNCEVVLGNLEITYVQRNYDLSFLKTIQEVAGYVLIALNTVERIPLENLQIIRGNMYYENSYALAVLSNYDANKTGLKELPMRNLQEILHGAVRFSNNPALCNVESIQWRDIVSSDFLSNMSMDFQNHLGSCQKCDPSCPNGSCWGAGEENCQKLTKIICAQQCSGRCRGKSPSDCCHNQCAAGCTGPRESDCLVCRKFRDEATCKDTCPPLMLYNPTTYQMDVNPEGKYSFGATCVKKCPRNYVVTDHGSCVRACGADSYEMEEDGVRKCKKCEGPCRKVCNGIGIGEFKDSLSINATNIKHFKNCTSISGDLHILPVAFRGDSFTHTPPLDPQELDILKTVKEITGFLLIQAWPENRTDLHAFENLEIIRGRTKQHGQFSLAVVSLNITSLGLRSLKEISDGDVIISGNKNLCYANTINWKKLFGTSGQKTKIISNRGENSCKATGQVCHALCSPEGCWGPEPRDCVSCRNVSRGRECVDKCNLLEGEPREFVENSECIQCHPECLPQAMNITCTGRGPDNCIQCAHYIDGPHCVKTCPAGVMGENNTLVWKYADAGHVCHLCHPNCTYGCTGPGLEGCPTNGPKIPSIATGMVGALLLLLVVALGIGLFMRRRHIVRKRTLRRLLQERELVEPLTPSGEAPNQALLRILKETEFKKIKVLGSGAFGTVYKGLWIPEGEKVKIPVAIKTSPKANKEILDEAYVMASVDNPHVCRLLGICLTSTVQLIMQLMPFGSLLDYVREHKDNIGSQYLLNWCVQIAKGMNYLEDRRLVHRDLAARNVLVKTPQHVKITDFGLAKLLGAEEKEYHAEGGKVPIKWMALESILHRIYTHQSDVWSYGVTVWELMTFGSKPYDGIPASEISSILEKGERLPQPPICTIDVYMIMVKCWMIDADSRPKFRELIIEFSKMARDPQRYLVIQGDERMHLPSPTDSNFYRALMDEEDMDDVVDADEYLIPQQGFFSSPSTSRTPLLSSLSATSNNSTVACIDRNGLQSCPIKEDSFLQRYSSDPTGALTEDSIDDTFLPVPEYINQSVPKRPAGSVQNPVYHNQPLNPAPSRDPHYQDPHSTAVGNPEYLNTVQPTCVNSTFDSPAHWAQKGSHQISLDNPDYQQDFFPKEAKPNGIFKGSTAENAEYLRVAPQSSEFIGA
# Method: as §1, §2, §3, §4, §5, §6, §7, §8, §9, §10, §11, §12, §13, §14, §15, §16, §17, §18
# Chain of EGFR L858R/T790M/C797S (P00533 25-1210 T790M/C797S/L858R): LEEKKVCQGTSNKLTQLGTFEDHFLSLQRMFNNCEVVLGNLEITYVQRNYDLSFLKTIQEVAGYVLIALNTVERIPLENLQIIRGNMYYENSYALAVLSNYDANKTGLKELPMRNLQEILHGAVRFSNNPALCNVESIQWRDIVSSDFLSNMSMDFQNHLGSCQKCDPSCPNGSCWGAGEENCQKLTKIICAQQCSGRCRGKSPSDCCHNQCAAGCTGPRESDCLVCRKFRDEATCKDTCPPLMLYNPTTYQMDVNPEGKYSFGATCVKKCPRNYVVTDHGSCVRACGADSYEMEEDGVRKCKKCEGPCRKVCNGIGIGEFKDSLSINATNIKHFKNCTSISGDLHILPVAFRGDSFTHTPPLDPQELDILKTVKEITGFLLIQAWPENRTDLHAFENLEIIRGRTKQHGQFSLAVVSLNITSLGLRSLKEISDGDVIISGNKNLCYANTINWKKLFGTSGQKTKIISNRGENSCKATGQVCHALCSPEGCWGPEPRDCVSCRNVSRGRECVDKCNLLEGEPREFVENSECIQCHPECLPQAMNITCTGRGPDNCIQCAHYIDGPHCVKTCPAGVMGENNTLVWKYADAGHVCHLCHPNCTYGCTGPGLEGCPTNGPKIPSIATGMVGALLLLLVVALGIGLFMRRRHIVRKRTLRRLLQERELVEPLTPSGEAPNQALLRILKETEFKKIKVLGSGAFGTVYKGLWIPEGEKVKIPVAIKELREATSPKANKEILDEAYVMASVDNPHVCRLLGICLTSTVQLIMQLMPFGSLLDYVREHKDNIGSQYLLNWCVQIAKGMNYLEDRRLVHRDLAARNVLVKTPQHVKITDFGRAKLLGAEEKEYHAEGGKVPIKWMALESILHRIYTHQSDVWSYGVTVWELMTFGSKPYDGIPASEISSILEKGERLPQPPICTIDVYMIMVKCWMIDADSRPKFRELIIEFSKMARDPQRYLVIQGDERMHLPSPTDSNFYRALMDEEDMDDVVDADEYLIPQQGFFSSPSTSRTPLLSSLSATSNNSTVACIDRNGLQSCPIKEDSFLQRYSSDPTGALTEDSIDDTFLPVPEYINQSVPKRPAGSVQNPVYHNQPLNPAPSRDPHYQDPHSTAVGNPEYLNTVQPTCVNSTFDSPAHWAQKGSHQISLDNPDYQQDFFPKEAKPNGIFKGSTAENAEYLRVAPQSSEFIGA
SMILES,IC50 (EGFR L858R/T790M/C797S; numeric values) [nM],IC50 (EGFR WT) [nM],GI50 (Ba/F3-Del19/T790M/C797S; numeric values) [nM],GI50 (Ba/F3-L858R/T790M/C797S; numeric values) [nM],IC50 (A431 (WT)) [nM],IC50 (EGFR Del19/T790M/C797S) [nM],GI50 (Ba/F3-Del19/T790M/C797S; class symbols) [nM],GI50 (Ba/F3-L858R/T790M/C797S; class symbols) [nM],IC50 (EGFR L858R/T790M/C797S; class symbols) [nM]
"CP(C)(=O)c1ccccc1Nc1nc(Nc2ccc(N3CCC4(CC3)CC(N)C4)c(F)c2)ncc1Cl [Example 29, (2-((2-((4-(2-amino-7-azaspiro[3.5]nonan-7-yl)-3-fluorophenyl)amino)-5-chloropyrimidin-4-yl)amino)phenyl)dimethylphosphine oxide]",1.6,35,16.9,32.9,95.5,–,–,–,–
"CP(C)(=O)c1ccccc1Nc1nc(Nc2ccc(N3CCC4(CC3)CC(N3CCCC3)C4)c(Cl)c2)ncc1Cl [Example 33, (2-((5-chloro-2-((3-chloro-4-(2-(pyrrolidin-1-yl)-7-azaspiro[3.5]nonan-7-yl)phenyl)amino)pyrimidin-4-yl)amino)phenyl)dimethylphosphine oxide]",–,–,9.7,11.7,47,0.4,–,–,–
"CN(C)C1CCC2(CC1)CN(c1ccc(Nc3ncc(Cl)c(Nc4ccccc4P(C)(C)=O)n3)cc1)C2 [Example 13, (2-((5-chloro-2-((4-(7-(dimethylamino)-2-azaspiro[3.5]nonan-2-yl)phenyl)amino)pyrimidin-4-yl)amino)phenyl)dimethylphosphine oxide]",1.3,–,–,–,41.6,0.6,≤ 10,≤ 10,–
"CN(C)[C@@H]1CCN(C2CC3(CCN(c4ccc(Nc5ncc(Cl)c(Nc6ccccc6P(C)(C)=O)n5)cc4Cl)CC3)C2)C1 [Example 34, (R)-(2-((5-chloro-2-((3-chloro-4-(2-(3-(dimethylamino)pyrrolidin-1-yl)-7-azaspiro[3.5]nonan-7-yl)phenyl)amino)pyrimidin-4-yl)amino)phenyl)dimethylphosphine oxide]",–,–,14.7,21.7,53,0.53,–,–,–
"CP(C)(=O)c1ccccc1Nc1nc(Nc2ccc(N3CC4(CCC(NCCO)CC4)C3)c(Cl)c2)ncc1Cl [Example 12, (2-((5-chloro-2-((3-chloro-4-(7-((2-hydroxyethyl)amino)-2-azaspiro[3.5]nonan-2-yl)phenyl)amino)pyrimidin-4-yl)amino)phenyl)dimethylphosphine oxide]",–,–,24.4,–,121,1,–,10 to 50,–
"Cc1cc(Nc2nc(Nc3ccccc3P(C)(C)=O)c3nc[nH]c3n2)ccc1N1CCC2(CC1)CC(N)C2 [Example 21, (2-((2-((4-(2-amino-7-azaspiro[3.5]nonan-7-yl)-3-methylphenyl)amino)-9H-purin-6-yl)amino)phenyl)dimethylphosphine oxide]",0.9,20,–,–,367,–,> 50,> 50,–
"CN(C)C1CC2(CCN(c3ccc(Nc4ncc(Cl)c(Nc5ccccc5P(C)(C)=O)n4)cc3)CC2)C1 [Example 17, (2-((5-chloro-2-((4-(2-(dimethylamino)-7-azaspiro[3.5]nonan-7-yl)phenyl)amino)pyrimidin-4-yl)amino)phenyl)dimethylphosphine oxide]",–,–,–,–,35,0.7,≤ 10,≤ 10,–
"CNC1CCC2(CC1)CN(c1ccc(Nc3ncc(Cl)c(Nc4ccccc4P(C)(C)=O)n3)cc1C)C2 [Example 2, (2-((5-chloro-2-((3-methyl-4-(7-(methylamino)-2-azaspiro[3.5]nonan-2-yl)phenyl)amino)pyrimidin-4-yl)amino)phenyl)dimethylphosphine oxide]",–,66,–,–,–,–,10 to 50,10 to 50,2 to 10
"CN(C)C1CC2(CCN(c3ccc(Nc4ncc(Cl)c(Nc5ccccc5P(C)(C)=O)n4)cc3C(F)(F)F)CC2)C1 [Example 19, (2-((5-chloro-2-((4-(2-(dimethylamino)-7-azaspiro[3.5]nonan-7-yl)-3-(trifluoromethyl)phenyl)amino)pyrimidin-4-yl)amino)phenyl)dimethylphosphine oxide]",4.5,> 300,–,–,349,–,10 to 50,10 to 50,–
"Cc1cc(Nc2ncc(C#N)c(Nc3ccccc3P(C)(C)=O)n2)ccc1N1CCC2(CC1)CC(N)C2 [Example 28, 2-((4-(2-amino-7-azaspiro[3.5]nonan-7-yl)-3-methylphenyl)amino)-4-((2-(dimethylphosphoryl)phenyl)amino)pyrimidine-5-carbonitrile]",–,> 300,–,–,–,–,> 50,> 50,> 10
"COc1cnc(Nc2ccc(N3CC4(CC(N)C4)C3)c(C)c2)nc1Nc1ccccc1P(C)(C)=O [Example 23, (2-((2-((4-(6-amino-2-azaspiro[3.3]heptan-2-yl)-3-methylphenyl)amino)-5-methoxypyrimidin-4-yl)amino)phenyl)dimethylphosphine oxide]",11,167,–,–,–,–,> 50,> 50,–
